Measured values published in patent publication US20110294722A1, “ANTIMICROBIAL PEPTIDES” (priority 2008, published 2011).
Where two headings read alike, the source gives them in different places. No end group written: not given here.

Experiments:
Assay type in all cases: cell-based
[1] = system: Pectobacterium carotovorum; details: Pectobacterium carotovorum; for MIC (>90% inhibition): 1-2 days at 25° C.; for LC (lethal concentration, 100% inhibition): at least 4 days of incubation
Procedure: (§1) In-vitro inhibition assays were performed in sterile flat-bottom 96-well plates (Greiner bio-one, Frickenhausen). Antimicrobial peptides were dissolved in 0.01% acetic acid containing 0.2% BSA (500 μg/ml), filter sterilized and stored at −20° C. For inhibition assays dilutions of peptides ranging from 5 to 200 μg/ml were prepared and 10 μl (antibacterial assay) or 20 (antifungal assay) of each concentration was loaded per well.
(§2) Bacteria colonies from overnight agar plate cultures were resuspended into 5 ml LB-medium or HPG-medium (OD600 nm=0.08-0.1) and diluted into LB-medium/HPG-medium (1:100). 90 μl of this suspension containing about 10^5-10^6 CFU/ml of tested bacteria were added to each well resulting in final peptide concentrations of 0, 0.5, 1, 2, 5, 10, and 20 μg/ml. […] The lowest concentration, in which there is no observable growth (>90% inhibition) is referred to as minimal inhibitory concentration (MIC). […] For each peptide concentration two identical inhibition assays were performed.

Pseudomonas corrugata = details: Pseudomonas corrugata; for MIC (>90% inhibition): 1-2 days at 25° C.; for LC (lethal concentration, 100% inhibition): at least 4 days of incubation
Procedure: as §1, §2

[2] = system: Pseudomonas syringae pv. syringae; details: Pseudomonas syringae pv. syringae; for MIC (>90% inhibition): 1-2 days at 25° C.; for LC (lethal concentration, 100% inhibition): at least 4 days of incubation
Procedure: as §1, §2

[3] = system: Pseudomonas syringae pv. tomato; details: for LC (lethal concentration, 100% inhibition): at least 4 days of incubation
Procedure: as §1, §2

[4] = system: Clavibacter michiganensis; experiment: In-vitro inhibition assay (MIC and LC), Example 3; details: for MIC (>90% inhibition): 1-2 days at 25° C.; for LC (lethal concentration, 100% inhibition): at least 4 days of incubation
Procedure: as §1, §2

Xanthomonas vesicatoria = experiment: In-vitro inhibition assay (MIC and LC), Example 3; details: for MIC (>90% inhibition): 1-2 days at 25° C.; for LC (lethal concentration, 100% inhibition): at least 4 days of incubation
Procedure: as §1, §2

[5] = Pseudomonas syringae pv. tomato, 1-2 days at 25° C.
[6] = Pseudomonas syringae pv. tomato

Substance | MIC (>90% inhibition) [1] | LC (lethal concentration, 100% inhibition) [1] | MIC (>90% inhibition) (Pseudomonas corrugata) | LC (lethal concentration, 100% inhibition) (Pseudomonas corrugata) | MIC (>90% inhibition) [2] | LC (lethal concentration, 100% inhibition) [2] | MIC (>90% inhibition) [3, 5] | LC (lethal concentration, 100% inhibition) [3, 6] | MIC (>90% inhibition) [4] | LC (lethal concentration, 100% inhibition) [4] | MIC (>90% inhibition) (Xanthomonas vesicatoria) | LC (lethal concentration, 100% inhibition) (Xanthomonas vesicatoria) | MIC (>90% inhibition) [3]
KKKKIIKRLI-NH2 [SP1-17] | >10/>10 μg/ml | >10/>10 μg/ml | 5.0 µg/mL | > 10 µg/mL | < 0.1 µg/mL | > 10 µg/mL | 1.0/1.0 μg/ml | 1.0/1.0 μg/ml | >10/>10 μg/ml | >10/>10 μg/ml | >10/>10 μg/ml | >10/>10 μg/ml | 
RKKKLKVVKRLV-NH2 [SP1-6] | >10/>10 μg/ml | >10/>10 μg/ml | >10/>10 μg/ml | >10/>10 μg/ml | 5.0 µg/mL | > 10 µg/mL | 1.0/1.0 μg/ml | 1.0/1.0 μg/ml | 10/>10 μg/ml | 10/>10 μg/ml | >10/>10 μg/ml | >10/>10 μg/ml | 
KRKKLLKRLL-NH2 [SP1-15] | >10/>10 μg/ml | >10/>10 μg/ml | <0.1/<0.1 μg/ml | <0.1/<0.1 μg/ml | 0.1 µg/mL | 1.0 µg/mL | 1.0/1.0 μg/ml | 1.0/1.0 μg/ml | 5.0/5.0 μg/ml | 5.0/5.0 μg/ml | 5.0/5.0 μg/ml | 5.0/5.0 μg/ml | 
RKKRLKLLKRLL-NH2 [SP1-1] |  | >10/>10 μg/ml | < 0.1 µg/mL | 0.25 µg/mL | 0.1/0.1 μg/ml | 0.1/0.1 μg/ml |  | >10/>10 μg/ml | 2.5/2.5 μg/ml | 2.5/2.5 μg/ml | 0.1 µg/mL | 0.25 µg/mL | >10/>10 μg/ml
RKKRKKLLKRLI-NH2 [SP1-20] | >10/>10 μg/ml | >10/>10 μg/ml | 0.5/0.5 μg/ml | 0.5/0.5 μg/ml | 0.25 µg/mL | 10 µg/mL | 10/>10 μg/ml | 10/>10 μg/ml | 5.0 µg/mL | 10 µg/mL | 10/>10 μg/ml | 10/>10 μg/ml | 
RKKKIKIIKRLI-NH2 [SP1-8] | >10/>10 μg/ml | >10/>10 μg/ml | 2.5/2.5 μg/ml | 2.5/2.5 μg/ml | 0.25 µg/mL | 0.5 µg/mL |  | 10/10 μg/ml | 5.0 µg/mL | > 10 µg/mL | 2.5 µg/mL | 5.0 µg/mL | 10/10 μg/ml
RKKKKKIIKKLI-NH2 [SP1-21] | >10/>10 μg/ml | >10/>10 μg/ml | 2.5 µg/mL | 5.0 µg/mL | 0.5 µg/mL | 2.5 µg/mL | 2.5 µg/mL | 5.0 µg/mL | >10/>10 μg/ml | >10/>10 μg/ml | >10/>10 μg/ml | >10/>10 μg/ml | 
RKKKFKFFKRFF-NH2 [SP1-13] | >10/>10 μg/ml | >10/>10 μg/ml | < 0.1 µg/mL | 0.25 µg/mL | 0.1 µg/mL | 0.5 µg/mL |  | 5.0 µg/mL | 0.25 µg/mL | 1.0 µg/mL | 0.5 µg/mL | 2.5 µg/mL | 1.0 µg/mL
RKKKAKIIKKII-NH2 [SP1-10] | >10/>10 μg/ml | >10/>10 μg/ml | 10/10 μg/ml | 10/10 μg/ml | 1.0 µg/mL | 5.0 µg/mL | >10/>10 μg/ml | >10/>10 μg/ml | >10/>10 μg/ml | >10/>10 μg/ml | >10/>10 μg/ml | >10/>10 μg/ml | 
RKKRKKLIKRLI-NH2 [Sp1-19] | >10/>10 μg/ml | >10/>10 μg/ml | 0.5 µg/mL | 1.0 µg/mL | < 0.1 µg/mL | 5.0 µg/mL | >10/>10 μg/ml | >10/>10 μg/ml | 5.0/5.0 μg/ml | 5.0/5.0 μg/ml | 5.0 µg/mL | > 10 µg/mL | 
RKKKFKIFKRLF-NH2 [SP1-14] | >10/>10 μg/ml | >10/>10 μg/ml | 0.5 µg/mL | 1.0 µg/mL | < 0.1 µg/mL | 0.5 µg/mL |  |  | 1.0 µg/mL | 2.5 µg/mL | 1.0 µg/mL | 2.5 µg/mL | 1.0 to 5.0 µg/mL
KKKKKKIIKKII-NH2 [SP1-22] | >10/>10 μg/ml | >10/>10 μg/ml | >10/>10 μg/ml | >10/>10 μg/ml | 2.5 µg/mL | 10 µg/mL | 1.0 µg/mL | 5.0 µg/mL | >10/>10 μg/ml | >10/>10 μg/ml | >10/>10 μg/ml | >10/>10 μg/ml | 
RKKRLRVVRRLV-NH2 [SP1-5] | >10/>10 μg/ml | >10/>10 μg/ml | 5.0 µg/mL |  | >10/>10 μg/ml | >10/>10 μg/ml | 1.0 µg/mL | 2.5 µg/mL | >10/>10 μg/ml | >10/>10 μg/ml | >10/>10 μg/ml | >10/>10 μg/ml | 
RKKRVKLLKRLV-NH2 [SP1-2] | >10/>10 μg/ml | >10/>10 μg/ml | 0.5 µg/mL | 2.5 µg/mL | 2.5 µg/mL | 5.0 µg/mL | 5.0/5.0 μg/ml | 5.0/5.0 μg/ml | 10/>10 μg/ml | 10/>10 μg/ml | 5.0 µg/mL | > 10 µg/mL | 
RKKKVKLLKRLV-NH2 [SP1-3] | >10/>10 μg/ml | >10/>10 μg/ml | 2.5/2.5 μg/ml | 2.5/2.5 μg/ml | 0.25 µg/mL | 1.0 µg/mL | 5.0 µg/mL | 10 µg/mL | >10/>10 μg/ml | >10/>10 μg/ml | >10/>10 μg/ml | >10/>10 μg/ml | 
